In patent publication US20120083460A1 (SAN EI GEN F.F.I., INC., priority 2009, published 2012):
Several values for one entry are separate records, joined by “and”; a condition that tells them apart may be missing. Equal values may be shown once. Read-outs that look alike come from different tables or passages of the source. One block for each compound: values may come before it.

Key:
[1] = Evaluation of IQC composition solubility in water (Experiment Example 1); type: physicochemical; conditions: for Solubility (in terms of isoquercitrin, mg/ml): water, shaken at 25° C. for 40 hours, solution pH 4.7-5.7 (Table 1)
Procedure: The Samples were added until they could not be dissolved further and formed deposits. Each solution was shaken at 25° C. for 40 hours, and centrifuged at 9,000 rpm for 10 min to collect the supernatant. The supernatant was appropriately diluted with a 0.1% phosphoric acid aqueous solution, and absorbance (340 nm) was measured.

[2] = Evaluation of water solubility with α- and β-cyclodextrins (Reference Experiment Example); type: physicochemical; conditions: water (25° C.), method of Experiment Example 1
[3] = Evaluation of the solubility of other flavonoids in water (Experiment Example 2); type: physicochemical
Procedure: The solubility (mg/ml) of each composition in water in terms of the flavonoid was then determined according to the method of Experiment Example 1. The solubility (mg/ml) of the flavonoid itself in water was also determined as a control, and the solubility (fold) was calculated from the relative ratio of the two.

[4] = Evaluation of preservation stability (presence or absence of deposits) in acid and sugar solution (Experiment Example 3); type: physicochemical; set-up: key: +: the presence of deposits; −: the absence of deposits; ×: no dissolution in the acid and sugar solution; conditions: 30 days
Procedure: Each solution was hot-packed in a 200-ml PET bottle (93° C.). The drink so prepared was allowed to cool, and placed under 50° C., room temperature (25±2° C.), and low-temperature (5° C.) conditions for 30 days. The presence or absence of deposits was then checked by visual inspection.
The drink so prepared was allowed to cool, and placed under 50° C., room temperature (25±2° C.), and low-temperature (5° C.) conditions for 30 days. The presence or absence of deposits was then observed.
In the table, the symbol “+” means the presence of deposits, and “−” the absence of deposits. The symbol “×” means no dissolution in the acid and sugar solution.

[5] = Evaluation of fading suppressing effect, fluorescent light irradiation (Experiment Example 4); conditions: final IQC 0.01% (γ-CD alone 0.14%), drink pH 3.1
Procedure: (§1) Specifically, a colorant-containing acidic drink of the formulation below was prepared. […] The drinks were irradiated with a fluorescent light (BIOTRON LH 300, NK System) or a UV Fade Meter (UV Long-Life Fade Meter FAL-3, Suga Test Instruments Co., Ltd.) for the durations presented in Table 6. Absorbance was measured before and after the irradiation, and the percentage remaining color (%) after the irradiation was calculated. Further, as a control test, a colorant-containing acidic drink was irradiated with the UV Fade Meter or fluorescent light as above without adding anything (no addition), and the percentage remaining color (%) after the irradiation was calculated.

[6] = Evaluation of fading suppressing effect, UV Fade Meter irradiation (Experiment Example 4); conditions: final IQC 0.01% (γ-CD alone 0.14%), drink pH 3.1
Procedure: as §1

[7] = Evaluation of flavor deterioration suppressing effect, sensory evaluation by six panelists (Experiment Example 5); conditions: drinks of formulations 1 to 7, IQC added as it is, final IQC 0.01%
Procedure: In the same manner, γ-CD (Wacker Chemical) was added to each drink in a final concentration of 0.14% to prepare a drink that contained γ-CD.
The drinks prepared as above were tested under the severity conditions presented in Table 9, and changes in drink flavor after the test were examined by six panelists in a sensory evaluation. Evaluations were made according to the following criteria on the scale of 1 (stress tested drink (blank) without any addition) to 5 (each drink before the test).
Table 9 presents means values of the scored points evaluated by the six panelists.

[8] = Absorption in the body: IQC metabolites in plasma after oral administration (Experiment Example 6); type: in vivo; conditions: 375 mg IQC equivalent, person n=1
Procedure: After 1, 2, and 3 hours from the administration, bloods were collected using heparin as anti-coagulant from the person, and centrifuged to obtain plasmas.
About 29,000 unit/ml β-glucuronidase (20 μl) dissolved in 0.58 M sodium acetate buffer (pH 4.9) was added to the plasma (180 μl), and the mixture was left unattended at 37° C. for 30 min. After adding 1 M AsA/10 mM sodium metaphosphate (50 μl, in terms of phosphoric acid) and 20 μg/ml diosmetin (9 μl), the mixture was frozen at −80° C., and freeze dried overnight. The freeze dried sample was suspended in MeOH (1 ml), and centrifuged at 15,000 rpm for 10 min. The supernatant was concentrated and dried, and dissolved in MeOH (90 μl). After adding 200 mM HCl (90 μl), the solution was centrifuged at 15,000 rpm for 10 min to collect the supernatant. The IQC metabolites quercetin, isorhamnetin, and tamarixetin in the plasma were then quantified by HPLC under the conditions below.

[9] = Cochineal colorant, fluorescence irradiation 6 D
[10] = Elderberry colorant, fluorescence irradiation 2 D
[11] = Grape juice colorant, fluorescence irradiation 20 D
[12] = Paprika colorant, fluorescence irradiation 1 D
[13] = Purple corn colorant, fluorescence irradiation 1 D
[14] = Purple sweet potato colorant, fluorescence irradiation 8 D
[15] = Red cabbage colorant, fluorescence irradiation 4 D
[16] = Safflower yellow colorant, fluorescence irradiation 4 D
[17] = β-carotene, fluorescence irradiation 6 D
[18] = Cochineal colorant, UV fade meter irradiation 6 H
[19] = Elderberry colorant, UV fade meter irradiation 2 H
[20] = Grape juice colorant, UV fade meter irradiation 20 H
[21] = Paprika colorant, UV fade meter irradiation 3 H
[22] = Purple corn colorant, UV fade meter irradiation 4 H
[23] = Purple sweet potato colorant, UV fade meter irradiation 7 H
[24] = Red cabbage colorant, UV fade meter irradiation 8 H
[25] = Safflower yellow colorant, UV fade meter irradiation 4 H
[26] = β-carotene, UV fade meter irradiation 17 H

Compound: O=c1c(O[C@@H]2O[C@H](CO)[C@@H](O)[C@H](O)[C@H]2O)c(-c2ccc(O)c(O)c2)oc2cc(O)cc(O)c12 [IQC, isoquercitrin]
upper limit solubility in water ([1]; acidic condition at 25° C.): 0.0102 mass %
Solubility (in terms of isoquercitrin, mg/ml) [1]: 0.1020 mg/mL
Solubility (in terms of isoquercitrin, mg/ml) ([1]; listed as Control): 0.10 mg/mL
Solubility (in terms of isoquercitrin, mg/ml) ([1]; listed as isoquercitrin): 0.102 mg/mL
Solubility (in terms of isoquercitrin, mg/ml) [2]: 0.10 mg/mL
Solubility (fold) (in terms of flavonoids) ([3]; Flavonoid:γ-CD = 1:0 (mole ratio), flavonoid itself = reference 1): 1 fold
presence or absence of deposits ([4]; pH 6, 50° C., flavonoid concentration 0.05%): −
presence or absence of deposits ([4]; pH 6, Refrigerated (5° C.), flavonoid concentration 0.05%): +
presence or absence of deposits ([4]; pH 6, Room temperature, flavonoid concentration 0.05%): +
presence or absence of deposits ([4]; pH 9, 50° C., flavonoid concentration 0.05%): −
presence or absence of deposits ([4]; pH 9, 50° C., flavonoid concentration 0.10%): −
presence or absence of deposits ([4]; pH 9, Refrigerated (5° C.), flavonoid concentration 0.05%): +
presence or absence of deposits ([4]; pH 9, Refrigerated (5° C.), flavonoid concentration 0.10%): +
presence or absence of deposits ([4]; pH 9, Room temperature, flavonoid concentration 0.05%): −
presence or absence of deposits ([4]; pH 9, Room temperature, flavonoid concentration 0.10%): +
percentage remaining color (%) [5, 9]: 75.6%
percentage remaining color (%) [5, 10]: 64.5%
percentage remaining color (%) [5, 11]: 91.1%
percentage remaining color (%) [5, 12]: 91.3%
percentage remaining color (%) [5, 13]: 76.4%
percentage remaining color (%) [5, 14]: 76.9%
percentage remaining color (%) [5, 15]: 60.1%
percentage remaining color (%) [5, 16]: 72.8%
percentage remaining color (%) [5, 17]: 71.2%
percentage remaining color (%) [6, 18]: 91.1%
percentage remaining color (%) [6, 19]: 70.2%
percentage remaining color (%) [6, 20]: 93.1%
percentage remaining color (%) [6, 21]: 55.8%
percentage remaining color (%) [6, 22]: 59.8%
percentage remaining color (%) [6, 23]: 88.0%
percentage remaining color (%) [6, 24]: 50.8%
percentage remaining color (%) [6, 25]: 71.6%
percentage remaining color (%) [6, 26]: 74.2%
IQC deposits in the prepared drink [7]: deposits were observed within several hours
Isorhamnetin in plasma ([8]; blood collection time 0 h): 0 µg/mL
Quercetin in plasma ([8]; blood collection time 0 h): 0.02 µg/mL
Tamarixetin in plasma ([8]; blood collection time 0 h): 0 µg/mL
Total flavonoid (quercetin, isorhamnetin, tamarixetin) in plasma ([8]; blood collection time 0 h): 0.02 µg/mL
Isorhamnetin in plasma ([8]; blood collection time 1 h): 0 µg/mL
Quercetin in plasma ([8]; blood collection time 1 h): 0.01 µg/mL
Tamarixetin in plasma ([8]; blood collection time 1 h): 0 µg/mL
Total flavonoid (quercetin, isorhamnetin, tamarixetin) in plasma ([8]; blood collection time 1 h): 0.01 µg/mL
Isorhamnetin in plasma ([8]; blood collection time 2 h): 0.02 µg/mL
Quercetin in plasma ([8]; blood collection time 2 h): 0.15 µg/mL
Tamarixetin in plasma ([8]; blood collection time 2 h): 0.06 µg/mL
Total flavonoid (quercetin, isorhamnetin, tamarixetin) in plasma ([8]; blood collection time 2 h): 0.2 µg/mL and 0.22 µg/mL
Isorhamnetin in plasma ([8]; blood collection time 3 h): 0.01 µg/mL
Quercetin in plasma ([8]; blood collection time 3 h): 0.15 µg/mL
Tamarixetin in plasma ([8]; blood collection time 3 h): 0.03 µg/mL
Total flavonoid (quercetin, isorhamnetin, tamarixetin) in plasma ([8]; blood collection time 3 h): 0.20 µg/mL
AUC ([8]; total metabolites in plasma, 0-3 h): 0.34 (μg/ml)·hr

Compound: O=c1c(O)c(-c2cc(O)c(O)c(O)c2)oc2cc(O)cc(O)c12 [Myricetin, myricetin]
Solubility (fold) (in terms of flavonoids) [3]: 1 fold

More lines, now with the values ahead:

Solubility (fold) (in terms of flavonoids) [3]: 1 fold
Compound: C[C@@H]1O[C@@H](O[C@H]2[C@H](Oc3cc(O)c4c(c3)O[C@H](c3ccc(O)cc3)CC4=O)O[C@H](CO)[C@@H](O)[C@@H]2O)[C@H](O)[C@H](O)[C@H]1O [Naringin, naringin]

Solubility (fold) (in terms of flavonoids) [3]: 1 fold
Compound: O=c1c(O)c(-c2ccc(O)c(O)c2)oc2cc(O)cc(O)c12 [Quercetin, quercetin]

percentage remaining color (%) [5, 9]: 71.5%
percentage remaining color (%) [5, 10]: 66.2%
percentage remaining color (%) [5, 11]: 88.1%
percentage remaining color (%) [5, 12]: 90.3%
percentage remaining color (%) [5, 13]: 69.2%
percentage remaining color (%) [5, 14]: 75.6%
percentage remaining color (%) [5, 15]: 54.0%
percentage remaining color (%) [5, 16]: 69.2%
percentage remaining color (%) [5, 17]: 60.6%
percentage remaining color (%) [6, 18]: 80.8%
percentage remaining color (%) [6, 19]: 65.2%
percentage remaining color (%) [6, 20]: 88.7%
percentage remaining color (%) [6, 21]: 37.6%
percentage remaining color (%) [6, 22]: 36.2%
percentage remaining color (%) [6, 23]: 79.4%
percentage remaining color (%) [6, 24]: 25.1%
percentage remaining color (%) [6, 25]: 62.4%
percentage remaining color (%) [6, 26]: 60.5%
Compound: OC[C@H]1O[C@@H]2O[C@H]3[C@H](O)[C@@H](O)[C@@H](O[C@H]4[C@H](O)[C@@H](O)[C@@H](O[C@H]5[C@H](O)[C@@H](O)[C@@H](O[C@H]6[C@H](O)[C@@H](O)[C@@H](O[C@H]7[C@H](O)[C@@H](O)[C@@H](O[C@H]8[C@H](O)[C@@H](O)[C@@H](O[C@H]9[C@H](O)[C@@H](O)[C@@H](O[C@H]1[C@H](O)[C@H]2O)O[C@@H]9CO)O[C@@H]8CO)O[C@@H]7CO)O[C@@H]6CO)O[C@@H]5CO)O[C@@H]4CO)O[C@@H]3CO [γ-CD, γ-cyclodextrin]
